In data set [1] the test system is 37RC cells. Nature of the data set: Toxicity to uninfected 37RC cells, determined visually by microscopy. The class given is cell-based, Monkey.
Data set [2] deals with parainfluenza Sendai virus (SV). Kind of data set: microbe, parasite or virus in culture. The class given is cell-based. Particulars: for IC50: Respirovirus muris; for inhibition of Sendai virus replication: 37RC cells, virus yield at 24 hours after infection.
Data set [3] has as its system A549 cells. Nature of the data set: MTT cell viability assay, uninfected A549 cells. The class given is cell-based, Human. Conditions: 24 hours. The method, then: (§1) Cell viability was determined by the 3-(4,5-dimethylthiazol-2-yl)-2,5-diphenyltetrazolium bromide MIT) assay. Uninfected A549 (7.5×10^4 cells/well in 96 well plates) or 37RC cells (2.5×10^4 cells/well in 96 well plates) were treated with different concentrations of CTC35 or ethanol diluent for 24 hours. After this time, […] of a 0.5% MIT solution in PBS was added to the monolayers and the mixture was incubated for 2 h at 37° C. Reduced MTT (formazan) was extracted from cells by adding 100 μl of acidic isopropanol containing 10% Triton X-100, and formazan absorbance was measured in an ELISA microplate reader at two different wavelengths (540 and 690 nm).

Data set [4] relates to 37RC cells. Nature of the data set: MTT cell viability assay, uninfected 37RC cells. The class given is cell-based, Monkey. Particulars: 24 hours. The method, then: as §1
The subject of data set [5] is Herpes simplex virus type one (HSV-1), strain F. Kind of data set: HSV-1 replication in Hep-2 cells, virus titre by CPE 50% assay on VERO cells. The class given is cell-based, Herpes simplex virus type 1. Conditions: Human alphaherpesvirus 1, HEp-2, 24 h, read-out: ID50 (50% inhibitory dose/concentration), HSV-1 virus replication. The method, then:
Methods: Human Hep-2 laryngeal carcinoma cells and monkey VERO cells were grown at 37° C. under the conditions described in Example 9 for T cells. Cell viability was determined by dye exclusion technique or by 3-(4,5-dimethylthiazol-2-yl)-2,5-diphenyl-tetrazolium bromide (MTT, Sigma Chemical Co.) to MTT formazan assay, as described by F. Denizot and R. Lang (J. Immunol. Methods 89: 271-277, 1986). Herpes simplex virus type one (HSV-1), strain F grown in VERO cells, was used at a multiplicity of infection of 10 plaque forming units (PFU) per cell. Confluent Hep-2 cell monolayers were infected with HSV-1 for 1 h at 37° C. After this time, virus inocula were removed and cells incubated in RPMI 1640 medium containing 2% FCS. Different concentrations of CTC-35 were added to the culture after the 1 h adsorption period, and maintained in the medium for the duration of the experiment. […] HSV-1 virus titres were determined 24 hours after infection by cytopathic effect 50% (CPE 50%) assay on confluent VERO cells monolayers in 96-well tissue culture plates (six dilutions for each sample, eight wells for each dilution), as described by F. Pica et al. (Antiviral Res. 20: 193-208, 1993). The dilution that gives 50% cytopathic effect were determined by the interpolating procedure of Reed and Muensch, as described by E. Rodriguez-Boulan Methods Enzymol. 98: 486-501, 1983).

Data set [6] deals with T1, NF-κB (Homo sapiens, UniProt Q04206). Kind of data set: EMSA of NF-κB DNA-binding activity in TPA-stimulated Jurkat T cells. The class given is cell-based. Also noted: endogenous in cells; host or cells: Jurkat T cells (human lymphoblastoid), TPA-stimulated; whole-cell extracts. Particulars: test compound 1 hour then TPA 25 ng/ml, extracts after 3 hours. The method, then:
Methods: Human lymphoblastoid Jurkat T cells were grown at 37° C. in a 5% CO2 atmosphere in RPM1 1640 medium (GIBCO BRL, Gaithersburg, Md.) supplemented with 10% fetal calf serum (FCS, Hyclone Europe Ltd, UK) 2 mM glutamine and antibiotics according to the method described by A. Rossi et al. (Proc. Natl. Acad. Sci. USA 94: 746-750, 1997). The test compounds were stored as a 100% ethanolic stock solution (100 mM) or in DMSO (100 mM and diluted to the appropriate concentration in culture medium at the time of use. Cells were treated with different concentrations of test compound for 1 hour and then stimulated with 12-O-tetradecanoylphorbol-13-acetate (TPA, 25 ng/ml), which is a strong inducer of NF-κB. Control cells received an equal amount of control diluent. After 3 hours whole-cell extracts were prepared and subjected to analysis of DNA-binding activity by EMSA (Electrophoretic Mobility Shift Assay) for detection of HSF or NF-κB activation, according to the method described by A. Rossi et al. (Proc. Natl. Acad. Sci. USA 94: 746-750, 1997).
Specificity of protein-DNA complexes was verified by immunoreactivity with polyclonal antibodies specific for p65 (Rel A) or for HSF-1, for NF-κB and HSF respectively. Quantitative evaluation of NF-κB- and HSF-DNA complex formation was determined by Molecular Dynamics Phosphorlmager (MDP) analysis and was expressed in arbitrary units, as described in A. Rossi et al.(J. Biol. Chem. 273: 16446-16452, 1998). The results from representative experiments are shown in FIGS. 1(b), 2(b), 3(b), 4(b), 5(b), 6 and 7(b) for compounds CTC-31, CTC-32, CTC-33, CTC-34, CTC-35, CTC-36 and CTC-45, as identified above.

Data set [7] has as its target T1, NF-κB. Particulars: at a concentration of 125-500 μM; cited from earlier work.
Data set [8] concerns the target T2, HSF1 (Homo sapiens, UniProt Q00613).
T2 sequence (Q00613 1-529): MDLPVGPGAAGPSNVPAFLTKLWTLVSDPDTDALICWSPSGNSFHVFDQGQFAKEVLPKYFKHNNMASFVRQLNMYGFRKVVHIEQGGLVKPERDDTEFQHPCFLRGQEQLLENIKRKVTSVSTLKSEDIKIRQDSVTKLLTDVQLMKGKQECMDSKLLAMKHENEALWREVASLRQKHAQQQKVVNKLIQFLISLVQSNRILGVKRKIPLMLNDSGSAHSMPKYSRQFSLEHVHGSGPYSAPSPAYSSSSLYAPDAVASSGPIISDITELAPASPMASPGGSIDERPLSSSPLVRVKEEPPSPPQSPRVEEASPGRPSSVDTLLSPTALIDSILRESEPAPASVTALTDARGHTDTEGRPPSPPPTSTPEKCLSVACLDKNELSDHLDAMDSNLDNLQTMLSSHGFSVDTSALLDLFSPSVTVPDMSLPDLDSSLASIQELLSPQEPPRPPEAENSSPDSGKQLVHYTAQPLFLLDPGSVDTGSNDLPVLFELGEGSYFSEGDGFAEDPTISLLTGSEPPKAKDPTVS
Particulars: at a concentration of 125-500 μM; cited from earlier work.

The conditions of data set [9]: anaesthetized rat, intravenous infusion, doses from 30 μg/kg/min; cited from earlier work.
Setting [10] is: Sendai virus in 37RC cells, at 24 hours, read-out: ID50 (the source's name).

The structures appear in SMILES notation. Where two headings read alike, the source gives them in different places.

T1 sequence (Q04206 whole entry): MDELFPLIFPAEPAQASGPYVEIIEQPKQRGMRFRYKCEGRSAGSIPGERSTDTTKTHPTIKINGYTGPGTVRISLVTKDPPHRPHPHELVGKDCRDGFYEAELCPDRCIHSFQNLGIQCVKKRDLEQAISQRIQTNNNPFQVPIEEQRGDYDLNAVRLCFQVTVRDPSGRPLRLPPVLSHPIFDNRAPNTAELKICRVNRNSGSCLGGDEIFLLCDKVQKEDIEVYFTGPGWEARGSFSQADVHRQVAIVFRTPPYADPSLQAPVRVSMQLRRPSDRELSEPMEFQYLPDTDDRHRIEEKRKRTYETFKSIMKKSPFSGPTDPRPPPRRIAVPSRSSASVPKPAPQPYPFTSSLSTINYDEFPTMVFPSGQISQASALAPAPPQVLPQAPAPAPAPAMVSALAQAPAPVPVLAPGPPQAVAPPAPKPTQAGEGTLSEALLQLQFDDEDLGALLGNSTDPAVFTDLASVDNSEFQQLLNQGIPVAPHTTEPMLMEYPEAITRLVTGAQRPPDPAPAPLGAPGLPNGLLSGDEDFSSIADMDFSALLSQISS
T1 sequence (P19838 1-433 partner limits assumed): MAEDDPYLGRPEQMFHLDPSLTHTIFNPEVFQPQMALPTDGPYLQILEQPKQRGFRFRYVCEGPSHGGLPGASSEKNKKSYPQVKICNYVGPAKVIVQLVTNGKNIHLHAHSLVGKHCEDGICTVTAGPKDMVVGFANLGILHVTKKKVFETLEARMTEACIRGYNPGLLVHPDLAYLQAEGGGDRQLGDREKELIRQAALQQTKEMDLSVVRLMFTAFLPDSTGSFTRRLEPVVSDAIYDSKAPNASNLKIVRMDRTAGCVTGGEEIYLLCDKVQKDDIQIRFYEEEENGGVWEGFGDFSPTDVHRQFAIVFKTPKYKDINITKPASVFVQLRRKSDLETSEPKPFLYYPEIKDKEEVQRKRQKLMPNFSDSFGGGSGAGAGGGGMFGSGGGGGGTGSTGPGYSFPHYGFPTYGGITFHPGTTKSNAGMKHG

Take `CC(C)(C)[Si](C)(C)OC1C=CC(=O)/C1=C/c1ccccn1` (stereo not drawn) [CTC-32, 4-tert.butyldimethylsilyloxy-5-[methylene-(2-pyridyl)]-cyclopent-2-ene-1-one]: the “TD100 (concentration 100% toxic to uninfected cells)” value in data set [1] stood at 10 µM. In [2] (24 h, read-out: ID50), the IC50 stood at 2000 nM.
For `CC(C)/C=C1\C(=O)C=CC1O[Si](C)(C)C(C)(C)C` (stereo not drawn) [CTC-35], the “LD50 (Lethal dose/concentration 50%)” value in data set [3] was 90 µM; in data set [4], 30 µM. Also, the “TD100 (concentration 100% toxic to uninfected cells)” value in data set [1] was 50 µM. Also, the IC50 was found to be 1510 nM in [5] and 400 nM in [2] (setting [10]). For the same compound, the “inhibition of NF-κB (NF-κB-DNA complex formation, EMSA)” value (“inhibition of NF-κB” for short) in [6] is “potent inhibitors of NF-κB”. Moreover, the “inhibition of Sendai virus replication” value in [2] was “potent inhibitors of Sendai virus replication”.
For the compound `CC(C)(C)[Si](C)(C)OC1C=CC(=O)/C1=C/c1ccccc1` (stereo not drawn) [CTC-33, 5-benzylidene-4-[(tert-butyldimethylsilyl)oxy]-2-cyclopentene-1-one], the “TD100 (concentration 100% toxic to uninfected cells)” value in [1] came out at 50 µM. Further, the “inhibition of NF-κB” value in data set [6] was “potent inhibitors of NF-κB”. For the same compound, the “inhibition of Sendai virus replication” value in [2] is listed as “potent inhibitors of Sendai virus replication”. Further, in [2] (setting [10]), the IC50 was 1500 nM.
In the case of `CCCCCCC/C=C1/C(=O)C=CC1O[Si](C)(C)C(C)(C)C` (stereo not drawn) [CTC-34, 4-tert.butyldimethylsilyloxy-5-(oct-1-ene)-cyclopent-2-ene-1-one], in data set [1], the “TD100 (concentration 100% toxic to uninfected cells)” value came to 50 µM. In addition, the “inhibition of NF-κB” value in data set [6] was “potent inhibitors of NF-κB”. Besides, the “inhibition of Sendai virus replication” value in data set [2] is “potent inhibitors of Sendai virus replication”. Also, the IC50 in data set [2] (24 h, read-out: ID50) was 3000 nM.
`O=C1C=CCC1` [cyclopent-2-en-1-one]: the “block of NF-κB activation by chemical or physiological inducers” value in [7] is “able to block NF-κB activation”. In [8], the “activation of HSF1” value is given as “able to activate HSF1”.
With `CCCCC[C@H](O)/C=C/[C@H]1[C@H](O)CC(=O)[C@@H]1CCCCCCC(=O)O` [Prostaglandin E1], in data set [9], the “effect on blood pressure” value was “dose-dependant falls in blood pressure”.
Consider `CCC/C=C1/C(=O)C=CC1O[Si](C)(C)C(C)(C)C` (stereo not drawn) [CTC-45, butyldimethylsilyloxy-5-[but-1-ene]-cyclopent-2-ene-1-one], for which, in data set [1], the “TD100 (concentration 100% toxic to uninfected cells)” value was 50 µM. In addition, in data set [6], the “inhibition of NF-κB” value is recorded as “potent inhibitors of NF-κB”. Also, the “inhibition of Sendai virus replication” value in data set [2] was “potent inhibitors of Sendai virus replication”. Moreover, the IC50 in data set [2] (24 h, read-out: ID50) is 3000 nM.
As for `CC/C=C1/C(=O)C=CC1O[Si](C)(C)C(C)(C)C` (stereo not drawn) [CTC-31, 4-tert.butyldimethylsilyloxy-5-(prop-1-ene)-cyclopent-2-ene-1-one], in data set [1], the “TD100 (concentration 100% toxic to uninfected cells)” value was determined as 50 µM. For the same compound, in data set [6], the “inhibition of NF-κB” value is “potent inhibitors of NF-κB”. For the same compound, the “inhibition of Sendai virus replication” value in data set [2] is on record as “potent inhibitors of Sendai virus replication”. Further, the IC50 in data set [2] (24 h, read-out: ID50) turned out to be 1000 nM.
As to `CC(C)/C=C1/C(=O)C=CC1O[Si](C)(C)C(C)(C)C` (stereo not drawn) [CTC-36], in data set [6], the “inhibition of NF-κB” value is given as “potent inhibitors of NF-κB”.
In the case of `CCCCC[C@H](O)/C=C/[C@H]1C=CC(=O)[C@@H]1CCCCCCC(=O)O` [Prostaglandin A1], the “effect on blood pressure” value in data set [9] was “dose-dependant falls in blood pressure”.

These data come from US20030186941A1, “Cyclopenteneone derivatives” (priority 1999, published 2003).
